Test results as given in EP4806894A1, “TNAP INHIBITORY COMPOUND AND USE THEREOF” (Rednvia Co., Ltd., priority 2023, dated 2025).
Structures can show the parent of a compound that is named as a salt.

How the values were obtained:
TNAP = biological target: T1, TNAP (Homo sapiens, UniProt P05186); assay: TNAP inhibitory activity, colorimetric assay (alkaline phosphatase assay kit ab83369, pNPP substrate); format: biochemical; conditions: TNAP enzyme, 2 hours at room temperature, absorbance 405 nm
T1 sequence (P05186 18-502 limits assumed): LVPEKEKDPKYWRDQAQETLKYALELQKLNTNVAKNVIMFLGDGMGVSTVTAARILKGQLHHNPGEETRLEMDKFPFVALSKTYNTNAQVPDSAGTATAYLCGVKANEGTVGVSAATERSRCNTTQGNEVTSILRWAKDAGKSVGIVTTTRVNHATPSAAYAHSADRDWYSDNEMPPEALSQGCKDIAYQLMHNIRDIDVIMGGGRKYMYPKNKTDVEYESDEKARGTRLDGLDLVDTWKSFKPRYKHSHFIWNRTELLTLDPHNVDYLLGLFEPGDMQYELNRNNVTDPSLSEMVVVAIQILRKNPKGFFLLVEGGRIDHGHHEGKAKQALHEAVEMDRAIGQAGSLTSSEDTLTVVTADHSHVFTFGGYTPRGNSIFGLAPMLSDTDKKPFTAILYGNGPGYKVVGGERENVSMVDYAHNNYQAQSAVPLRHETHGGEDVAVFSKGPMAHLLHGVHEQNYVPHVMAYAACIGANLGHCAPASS
Experimental: The TNAP inhibitory activity of the compounds according to the present invention was analyzed by colorimetric assay.
The experiments were performed according to the protocol of the alkaline phosphatase assay kit ab83369.
TNAP enzyme at a concentration of 0.2 ng/µl was dispensed into a 96-well plate (Costar) (10 µl/well), to which the 10-fold diluted test substance was added (15 µl/well). The plate was incubated at room temperature, shielded from light, for 10 minutes to allow the enzyme and compound to act. After incubation, 125 µl of 1 mM substrate (pNPP) was added to each well of the plate, and the plate was incubated for 2 hours at room temperature in a darkened state to allow the enzyme, substrate, and test compound to act. Absorbance was measured at 405 nm using a microplate reader (Tecan spark), and IC50 was calculated using GraphPad Prism 9. The amount of p-nitrophenol produced was calculated through the absorbance, and the degree of TNAP activity inhibition was evaluated through the degree of inhibition of p-nitrophenol production, and the concentration of the compound that inhibited 50% was calculated as the IC50 value.

saos-2 cells = assay: Anticalcification efficacy in saos-2 cells (osteogenic medium, Alizarin Red staining); format: cell-based; conditions: Homo sapiens, 168 h, test compound 1 µM, 7 days osteogenic medium, Alizarin Red absorbance 540 nm, read-out: calcification inhibition
Experimental: To confirm the inhibitory effect of calcification in saos-2 cells in which calcification is induced by overexpression of TNAP, saos-2 cells were cultured in a culture medium in an incubator at 37°C, 95% humidity, and 5% CO2. RPMI-1640 (Corning) supplemented with 10% FBS (Gibco) and 1% Pen/Strep (Gibco) was used as the culture medium.
Saos-2 cells were seeded in a 48-well plate at the density of 1.5 x 10^4 cells/well and used in the experiment when they reached 80-90% confluence after stabilization for 2 days.
After saos-2 cells were cultured in a 48-well plate to 80-90% confluence, the culture medium was removed and replaced with an osteogenic medium (OM). DMEM (Gibco) containing 10% FBS, 1% Pen/Strep, 100 nM dexamethasone (Sigma), 10 mM β-glycerophosphate (Sigma), and 0.05 mM L-ascorbic acid (Sigma) was used as the OM. Osteogenic differentiation of saos-2 cells by OM was induced for 7 days, and OM was replaced every 2 to 3 days.
When inducing calcification through OM in saos-2 cells, the cells were treated with concentrations of […] of the TNAP inhibitor test compounds with the OM replacement cycle, except for the control group (OM).
After 7 days of OM induction, the medium was removed from each well and the plate was washed twice with PBS. Cells were fixed with 4% paraformaldehyde for 1 hour, then the fixative was removed and washed twice with deionized water (DW). ARS solution was added to the plate and shaken for 1 hour to stain the cells. When the cells were sufficiently stained red, the dye was removed, the cells were washed carefully with DW, dried, and then photographs were taken of the stained cells. The red-stained area represents calcification induced by OM, and the degree of calcification was determined based on the degree of redness. To quantify this, 10% cetylpyridinium chloride was dispensed into the wells and the dye was dissolved. The dye-dissolved solution was transferred to each well of a 96 well plate and absorbance was measured at 540 nm.
The degree of decrease in the measured absorbance by the test compounds based on the absorbance for OM was evaluated as the degree of inhibition of calcification.

| Compound | IC50 (TNAP) | inhibition at 1 µM (saos-2 cells) |
| --- | --- | --- |
| CCOC(=O)CCc1ccc(-c2ccc(OC)c(S(=O)(=O)Nc3cnc4c(c3)C(=O)NCC4)c2)cc1 [Example 49, ethyl 3-(4'-methoxy-3'-(N-(5-oxo-5,6,7,8-tetrahydro-1,6-naphthyridine-3-yl)sulfamoyl)-[1,1'-biphenyl]-4-yl)propanoate] | 10 to 100 nM | ≥ 50% |
| COc1ccc(-c2ccc(CCC(=O)O)cc2)cc1S(=O)(=O)Nc1cnc2c(c1)C(=O)NCC2 [Example 50, 3-(4'-methoxy-3'-(N-(5-oxo-5,6,7,8-tetrahydro-1,6-naphthyridine-3-yl)sulfamoyl)-[1,1'-biphenyl]-4-yl)propanoic acid] | 10 to 100 nM | ≥ 50% |
| COc1ccc(C2=CCOCC2)cc1S(=O)(=O)Nc1cnc2c(c1)C(=O)NCC2 [Example 51, 5-(3,6-dihydro-2H-pyran-4-yl)-2-methoxy-N-(5-oxo-5,6,7,8-tetrahydro-1,6-naphthyridine-3-yl)benzenesulfonamide] | 100 to 1000 nM | ≥ 50% |
| COc1ccc(C2=CCN(C(=O)OC(C)(C)C)CC2)cc1S(=O)(=O)Nc1cnc2c(c1)C(=O)NCC2 [Example 52, tert-butyl 4-(4-methoxy-3-(N-(5-oxo-5,6,7,8-tetrahydro-1,6-naphthyridine-3-yl)sulfamoyl)phenyl)-3,6-dihydropyridine-1(2H)-carboxylate] | 100 to 1000 nM | ≥ 50% |
| COc1ccc(C2=CCNCC2)cc1S(=O)(=O)Nc1cnc2c(c1)C(=O)NCC2 [Example 53, 2-methoxy-N-(5-oxo-5,6,7,8-tetrahydro-1,6-naphthyridine-3-yl)-5-(1,2,3,6-tetrahydropyridine-4-yl)benzenesulfonamide hydrochloride] | 100 to 1000 nM | 0 to 50% |
| COc1ccc(-c2cnn(C3CCCCO3)c2)cc1S(=O)(=O)Nc1cnc2c(c1)C(=O)NCC2 (stereo not drawn) [Example 54, 2-methoxy-N-(5-oxo-5,6,7,8-tetrahydro-1,6-naphthyridine-3-yl)-5-(1-(tetrahydro-2H-pyran-2-yl)-1H-pyrazole-4-yl)benzenesulfonamide] | 100 to 1000 nM | ≥ 50% |
| COc1ccc(-c2cn[nH]c2)cc1S(=O)(=O)Nc1cnc2c(c1)C(=O)NCC2 [Example 55, 2-methoxy-N-(5-oxo-5,6,7,8-tetrahydro-1,6-naphthyridine-3-yl)-5-(1H-pyrazole-4-yl)benzenesulfonamide] | 100 to 1000 nM | ≥ 50% |
| O=C1NCCc2ncc(NS(=O)(=O)c3cc(F)ccc3Br)cc21 [Example 56, 2-bromo-5-fluoro-N-(5-oxo-5,6,7,8-tetrahydro-1,6-naphthyridine-3-yl)benzenesulfonamide] | 100 to 1000 nM | ≥ 50% |
| COc1ccc(-c2cnn(C)c2)cc1S(=O)(=O)Nc1cnc2c(c1)C(=O)NCC2 [Example 57, 2-methoxy-5-(1-methyl-1H-pyrazole-4-yl)-N-(5-oxo-5,6,7,8-tetrahydro-1,6-naphthyridine-3-yl)benzenesulfonamide] | 100 to 1000 nM | ≥ 50% |
| COc1ccc(-c2cnn(C(C)(C)C(N)=O)c2)cc1S(=O)(=O)Nc1cnc2c(c1)C(=O)NCC2 [Example 58, 2-(4-(4-methoxy-3-(N-(5-oxo-5,6,7,8-tetrahydro-1,6-naphthyridine-3-yl)sulfamoyl)phenyl)-1H-pyrazole-1-yl)-2-methylpropanamide] | ≥ 1000 nM | 0 to 50% |
| CCOC(=O)C(C)(C)n1cc(-c2ccc(OC)c(S(=O)(=O)Nc3cnc4c(c3)C(=O)NCC4)c2)cn1 [Example 59, ethyl 2-(4-(4-methoxy-3-(N-(5-oxo-5,6,7,8-tetrahydro-1,6-naphthyridine-3-yl)sulfamoyl)phenyl)-1H-pyrazole-1-yl)-2-methylpropanoate] | 100 to 1000 nM | ≥ 50% |
| COc1ccc(-c2cnn(C(C)(C)C(=O)O)c2)cc1S(=O)(=O)Nc1cnc2c(c1)C(=O)NCC2 [Example 60, 2-(4-(4-methoxy-3-(N-(5-oxo-5,6,7,8-tetrahydro-1,6-naphthyridine-3-yl)sulfamoyl)phenyl)-1H-pyrazole-1-yl)-2-methylpropanoic acid] | 100 to 1000 nM | ≥ 50% |
| COc1ccc(C2=CCN(C(C)=O)CC2)cc1S(=O)(=O)Nc1cnc2c(c1)C(=O)NCC2 [Example 61, 5-(1-acetyl-1,2,3,6-tetrahydropyridine-4-yl)-2-methoxy-N-(5-oxo-5,6,7,8-tetrahydro-1,6-naphthyridine-3-yl)benzenesulfonamide] | 100 to 1000 nM | ≥ 50% |
| COc1ccc(C2=CCCOC2)cc1S(=O)(=O)Nc1cnc2c(c1)C(=O)NCC2 [Example 62, 5-(5,6-dihydro-2H-pyran-3-yl)-2-methoxy-N-(5-oxo-5,6,7,8-tetrahydro-1,6-naphthyridine-3-yl)benzenesulfonamide] | 10 to 100 nM | ≥ 50% |
| COc1ccc(C2=CCCCC2)cc1S(=O)(=O)Nc1cnc2c(c1)C(=O)NCC2 [Example 63, 4-methoxy-N-(5-oxo-5,6,7,8-tetrahydro-1,6-naphthyridine-3-yl)-2',3',4',5'-tetrahydro-[1,1'-biphenyl]-3-sulfonamide] | 100 to 1000 nM | < 0% |
| COc1ccc(C2=CCC(F)(F)CC2)cc1S(=O)(=O)Nc1cnc2c(c1)C(=O)NCC2 [Example 64, 4',4'-difluoro-4-methoxy-N-(5-oxo-5,6,7,8-tetrahydro-1,6-naphthyridine-3-yl)-2',3',4',5'-tetrahydro-[1,1'-biphenyl]-3-sulfonamide] | ≥ 1000 nM | < 0% |
| COc1ccc(-c2cnn(C3CCN(C)CC3)c2)cc1S(=O)(=O)Nc1cnc2c(c1)C(=O)NCC2 [Example 65, 2-methoxy-5-(1-(1-methylpiperidine-4-yl)-1H-pyrazole-4-yl)-N-(5-oxo-5,6,7,8-tetrahydro-1,6-naphthyridine-3-yl)benzenesulfonamide] | ≥ 1000 nM | < 0% |
| CCNC(=O)Cn1cc(-c2ccc(OC)c(S(=O)(=O)Nc3cnc4c(c3)C(=O)NCC4)c2)cn1 [Example 66, N-ethyl-2-(4-(4-methoxy-3-(N-(5-oxo-5,6,7,8-tetrahydro-1,6-naphthyridine-3-yl)sulfamoyl)phenyl)-1H-pyrazole-1-yl)acetamide] | ≥ 1000 nM | < 0% |
| CCNC(=O)CCc1ccc(-c2ccc(OC)c(S(=O)(=O)Nc3cnc4c(c3)C(=O)NCC4)c2)cc1 [Example 67, N-ethyl-3-(4'-methoxy-3'-(N-(5-oxo-5,6,7,8-tetrahydro-1,6-naphthyridine-3-yl)sulfamoyl)-[1,1'-biphenyl]-4-yl)propanamide] | 100 to 1000 nM | 0 to 50% |
| CCOC(=O)Cn1cc(-c2ccc(OC)c(S(=O)(=O)Nc3cnc4c(c3)C(=O)NCC4)c2)cn1 [Example 68, ethyl 2-(4-(4-methoxy-3-(N-(5-oxo-5,6,7,8-tetrahydro-1,6-naphthyridine-3-yl)sulfamoyl)phenyl)-1H-pyrazole-1-yl)acetate] | 10 to 100 nM | ≥ 50% |
| COc1ccc(-c2cnn(C(C)c3nc(C(C)C)no3)c2)cc1S(=O)(=O)Nc1cnc2c(c1)C(=O)NCC2 (stereo not drawn) [Example 69, 5-(1-(1-(3-isopropyl-1,2,4-oxadiazole-5-yl)ethyl)-1H-pyrazole-4-yl)-2-methoxy-N-(5-oxo-5,6,7,8-tetrahydro-1,6-naphthyridine-3-yl)benzenesulfonamide] | 100 to 1000 nM | < 0% |
